Columns and labels:
human GLP-1R [1] = biological target: T1, human GLP-1R (Homo sapiens, UniProt P43220); assay: cAMP assay in HEK293-SNAP-GLP-1R cells (HTRF); format: cell-based; conditions: 30-min stimulation, n = 4, compared to native GLP-1(7-36)NH2
Procedure: HEK293 cells stably expressing human GLP‐1R or human GIPR, each self‐labelling protein tag (SNAP)‐tagged at their N‐termini (Cisbio), were cultured in Dulbecco's Modified Eagle's Medium (DMEM) medium (Gibco), 10% fetal bovine serum (FBS) and 1% penicillin/streptomycin.
HEK293‐SNAP‐GLP‐1R, HEK293‐SNAP‐GIPR or GLP‐1R‐β‐arrestin 2 cells were seeded overnight in 12‐well plates. On the day of the assay, cells were resuspended and dispensed into white, 96‐well plates containing the indicated concentration of agonist prepared in serum‐free medium containing 0.1% bovine serum albumin (BSA). After a 30‐min stimulation, cAMP detection reagents (cAMP dynamic kit, Cisbio) were added, and the plate was read 60 min later using an HTRF‐compatible plate reader. Data were analysed using three‐parameter logistic fitting (GraphPad Prism 9.0) and normalised to the maximal fitted response of the reference ligand (GLP‐1 or semaglutide) for presentation purposes.

human GLP-1R [2] = biological target: T1, human GLP-1R; assay: GLP-1R binding kinetics, TR-FRET competitive kinetics with exendin(9-39)-FITC; conditions: calculated from K on and K off; HISHS-2001 versus tirzepatide
Procedure: HEK293‐SNAP‐GLP‐1R cells were seeded overnight in 12‐well plates. On the day of the assay, cells were labelled with 40 nM Lumi4‐Tb (Cisbio) in complete medium for 30 min. After washing, labelled cells were preincubated for 20 min in Hanks' Balanced Salt Solution (HBSS) supplemented with 0.1% BSA and a metabolic inhibitor cocktail (10 mM NaN3, 20 mM 2‐deoxyglucose) to inhibit GLP‐1R endocytosis that would otherwise influence binding assays. Ligand binding was then detected in real time using time‐resolved Förster resonance energy transfer (TR‐FRET) using a Flexstation 3 plate reader (Molecular Devices). […] Plate reader settings included 340 nm λexcitation, 520 nm (cut‐off 495 nm) and 620 nm (cut‐off 570 nm) λemission, 400 μs delay and 1500 μs integration time. Association and dissociation rate constants were calculated using the kinetics of competitive binding algorithm in GraphPad Prism 9.0.

in vivo = assay: in vivo; design: species or system mouse; conditions: sc; for Tmax / half-life: male, CD-1, mouse; for stability in the circulation: mouse
Procedure: Ninety animals were procured from LAR. Animals were acclimatized for 1 day. On Day 0, each animal was weighed. […] Animals were injected subcutaneously at 1 mg/kg for the corresponding agonist (dose volume: 10 mL/kg) using 26½ gauge needles. At 1, 2, 4, 8, 12, 24, 48, 72, and 96 h, ~500 μL of blood was collected by retro‐orbital plexus puncture using capillary micro‐centrifuge tubes containing anticoagulant (15 μL 10% K2 EDTA). Plasma was separated from blood by centrifugation at ~3300 rpm for 10 min at 4°C. HISHS‐2001 concentrations were estimated using liquid chromatography with tandem mass spectrometry.

T1 sequence (P43220 24-463): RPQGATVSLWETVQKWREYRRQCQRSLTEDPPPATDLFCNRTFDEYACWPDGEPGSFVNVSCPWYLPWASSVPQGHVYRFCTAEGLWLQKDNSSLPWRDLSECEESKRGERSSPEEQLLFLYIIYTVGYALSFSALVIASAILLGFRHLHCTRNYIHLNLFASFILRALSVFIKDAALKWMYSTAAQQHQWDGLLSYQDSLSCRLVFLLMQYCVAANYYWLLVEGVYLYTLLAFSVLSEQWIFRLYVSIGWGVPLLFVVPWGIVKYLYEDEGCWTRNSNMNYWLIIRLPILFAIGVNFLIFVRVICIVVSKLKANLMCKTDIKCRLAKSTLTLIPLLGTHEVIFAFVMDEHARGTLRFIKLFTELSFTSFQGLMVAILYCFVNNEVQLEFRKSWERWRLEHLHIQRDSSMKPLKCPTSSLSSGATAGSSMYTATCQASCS

Compound: CC[C@H](C)[C@H](NC(=O)[C@H](CC(C)C)NC(=O)[C@H](Cc1c[nH]c2ccccc12)NC(=O)[C@H](CCC(N)=O)NC(=O)[C@@H](NC(=O)[C@H](Cc1ccccc1)NC(=O)[C@H](C)NC(=O)[C@H](CCCCNC(=O)COCCOCCNC(=O)C(C)(C)NC(=O)CC[C@H](NC(=O)CCCCCCCCCCCCCCCCCCC(=O)O)C(=O)O)NC(=O)[C@H](CCC(N)=O)NC(=O)[C@H](C)NC(=O)[C@@H](NC(=O)[C@H](CCCCN)NC(=O)[C@H](CC(=O)O)NC(=O)[C@H](CC(C)C)NC(=O)C(C)(C)NC(=O)[C@@H](NC(=O)[C@H](CO)NC(=O)[C@H](Cc1ccc(O)cc1)NC(=O)[C@H](CC(=O)O)NC(=O)[C@H](CO)NC(=O)[C@@H](NC(=O)[C@H](Cc1ccccc1)NC(=O)[C@@H](NC(=O)CNC(=O)[C@H](CCC(=O)O)NC(=O)C(C)(C)NC(=O)[C@@H](N)Cc1ccc(O)cc1)[C@@H](C)O)[C@@H](C)O)[C@@H](C)CC)[C@@H](C)CC)C(C)C)C(=O)N[C@@H](C)C(=O)NCC(=O)NCC(=O)N1CCC[C@H]1C(=O)N[C@@H](CO)C(=O)N[C@@H](CO)C(=O)NCC(=O)N[C@@H](C)C(=O)N1CCC[C@H]1C(=O)N1CCC[C@H]1C(=O)N1CCC[C@H]1C(=O)N[C@@H](CO)C(N)=O [HISHS-2001]
- cAMP potency (pEC50) at the GLP-1R (human GLP-1R [1]): significantly reduced potency
- calculated Kd at GLP-1R (human GLP-1R [2]): also lower
- Tmax (in vivo): 8 h
- half-life (in vivo): 10.1 h
- stability in the circulation (in vivo): similar

Compound: CC[C@H](C)[C@H](NC(=O)[C@H](CC(C)C)NC(=O)[C@H](Cc1c[nH]c2ccccc12)NC(=O)[C@H](CCC(N)=O)NC(=O)[C@@H](NC(=O)[C@H](Cc1ccccc1)NC(=O)[C@H](C)NC(=O)[C@H](CCCCNC(=O)COCCOCCNC(=O)COCCOCCNC(=O)CC[C@H](NC(=O)CCCCCCCCCCCCCCCCCCC(=O)O)C(=O)O)NC(=O)[C@H](CCC(N)=O)NC(=O)[C@H](C)NC(=O)[C@@H](NC(=O)[C@H](CCCCN)NC(=O)[C@H](CC(=O)O)NC(=O)[C@H](CC(C)C)NC(=O)C(C)(C)NC(=O)[C@@H](NC(=O)[C@H](CO)NC(=O)[C@H](Cc1ccc(O)cc1)NC(=O)[C@H](CC(=O)O)NC(=O)[C@H](CO)NC(=O)[C@@H](NC(=O)[C@H](Cc1ccccc1)NC(=O)[C@@H](NC(=O)CNC(=O)[C@H](CCC(=O)O)NC(=O)C(C)(C)NC(=O)[C@@H](N)Cc1ccc(O)cc1)[C@@H](C)O)[C@@H](C)O)[C@@H](C)CC)[C@@H](C)CC)C(C)C)C(=O)N[C@@H](C)C(=O)NCC(=O)NCC(=O)N1CCC[C@H]1C(=O)N[C@@H](CO)C(=O)N[C@@H](CO)C(=O)NCC(=O)N[C@@H](C)C(=O)N1CCC[C@H]1C(=O)N1CCC[C@H]1C(=O)N1CCC[C@H]1C(=O)N[C@@H](CO)C(N)=O [tirzepatide, reference compound]
- Tmax (in vivo): 8 h
- half-life (in vivo): 8.78 h
- stability in the circulation (in vivo): similar
